Source: patent US11312719B2, “9-substituted amino triazolo quinazoline derivatives as adenosine receptor antagonists, pharmaceutical compositions and their use” (Merck Sharp & Dohme Corp., priority 2018, dated 2022)

Assays:
human A2B receptors = human A2B receptors (Homo sapiens (Human), UniProt P29275); assay: A2B antagonism in cAMP cell-based assay (LANCE cAMP, HEK293); settings: HEK293 cells expressing human A2B receptor; for A2B cAMP % Inh. @10000 nM: at 10000 nM
Procedure, shortened: (§1)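 HEK293 cells expressing human A2A or A2B, in HBSS/5 mM HEPES/200 nM rolipram, were preincubated with compound (0.5–10,000 nM, 0.25% DMSO) 30 min at 37° C. Adenosine was then added from 300 nM (A2A) or 600 nM (A2B) solution for 30 min.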

human A2A receptors = human A2A receptors (Homo sapiens (Human), UniProt P29274); assay: A2A antagonism in cAMP cell-based assay (LANCE cAMP, HEK293); settings: HEK293 cells expressing human A2A receptor
human A2A receptors, sequence (P29274 whole entry): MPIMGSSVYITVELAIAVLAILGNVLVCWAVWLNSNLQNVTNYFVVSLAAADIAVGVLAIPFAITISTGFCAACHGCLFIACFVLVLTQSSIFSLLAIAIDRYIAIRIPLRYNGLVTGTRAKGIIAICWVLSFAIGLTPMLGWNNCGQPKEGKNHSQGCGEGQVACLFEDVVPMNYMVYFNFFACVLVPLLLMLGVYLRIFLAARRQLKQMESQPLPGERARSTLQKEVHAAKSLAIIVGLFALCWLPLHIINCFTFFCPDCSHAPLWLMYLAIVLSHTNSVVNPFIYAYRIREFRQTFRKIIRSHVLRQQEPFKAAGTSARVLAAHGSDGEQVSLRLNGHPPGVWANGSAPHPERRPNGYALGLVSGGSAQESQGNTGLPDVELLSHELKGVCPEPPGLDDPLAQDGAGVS
Procedure, shortened: as §1

human A2B receptors, sequence (P29275 whole entry): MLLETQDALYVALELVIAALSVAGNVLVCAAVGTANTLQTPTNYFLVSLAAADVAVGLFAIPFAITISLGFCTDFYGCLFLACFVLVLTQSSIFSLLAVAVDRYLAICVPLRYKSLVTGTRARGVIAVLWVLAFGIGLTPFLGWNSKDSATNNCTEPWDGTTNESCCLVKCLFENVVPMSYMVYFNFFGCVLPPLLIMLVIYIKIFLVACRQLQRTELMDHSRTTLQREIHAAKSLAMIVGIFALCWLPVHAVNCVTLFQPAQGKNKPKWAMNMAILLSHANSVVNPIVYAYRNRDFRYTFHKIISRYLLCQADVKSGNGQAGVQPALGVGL

COc1cc(F)cc2c1nc(N)n1nc(C3CC(C)CN(c4cnn(CC(C)(C)O)c4C)C3)nc21 (single isomer, unassigned) [Example 174, 1-(4-((3S,5R or 3R,5S)-3-(5-amino-9-fluoro-7-methoxy-[1,2,4]triazolo[1,5-c]quinazolin-2-yl)-5-methylpiperidin-1-yl)-5-methyl-1H-pyrazol-1-yl)-2-methylpropan-2-ol]
IC50 (human A2B receptors): 30.7 nM | IC50 (human A2A receptors): 0.6 nM

COc1cc2nc(N)n3nc(C4CCC(C)N(c5cnn(C(C)(C)C(C)O)c5)C4)nc3c2cc1F (single isomer, unassigned) [Example 265, (S or R)-3-(4-((2S,5R or 2R,5S)-5-(5-amino-9-fluoro-8-methoxy-[1,2,4]triazolo[1,5-c]quinazolin-2-yl)-2-methylpiperidin-1-yl)-1H-pyrazol-1-yl)-3-methylbutan-2-ol]
IC50 (human A2B receptors): 4.5 nM | IC50 (human A2A receptors): 1.3 nM

CC(O)C(C)n1cc(N2CC(c3nc4c5cc(F)cc(F)c5nc(N)n4n3)CCC2C)cn1 (single isomer, unassigned) [Example 234, (2R,3R or 2S,3S)-3-(4-((2R,5S or 2S,5R)-5-(5-amino-7,9-difluoro-[1,2,4]triazolo[1,5-c]quinazolin-2-yl)-2-methylpiperidin-1-yl)-1H-pyrazol-1-yl)butan-2-ol]
IC50 (human A2B receptors): 1200 nM | IC50 (human A2A receptors): 46.8 nM

COc1cc2nc(N)n3nc([C@@H]4C[C@H](C)CN(c5cnn(CC(C)(C)O)c5)C4)nc3c2cc1F (single isomer, unassigned) [Example 157, 1-(4-((3R,5S or 3S,5R)-3-(5-amino-9-fluoro-8-methoxy-[1,2,4]triazolo[1,5-c]quinazolin-2-yl)-5-methylpiperidin-1-yl)-1H-pyrazol-1-yl)-2-methylpropan-2-ol]
IC50 (human A2B receptors): 4480 nM | IC50 (human A2A receptors): 33.4 nM

CC1CCC(c2nc3c4cc(F)cc(F)c4nc(N)n3n2)CN1c1cnn(CC(C)(O)CO)c1 (single isomer, unassigned) [Example 256]
IC50 (human A2B receptors): 3890 nM | IC50 (human A2A receptors): 241 nM

CC1CCC(c2nc3c4cc(F)cc(F)c4nc(N)n3n2)CN1c1cnn(CC(C)(CO)CO)c1 (single isomer, unassigned) [Example 260]
IC50 (human A2B receptors): 10 nM | IC50 (human A2A receptors): 1.7 nM

(S or R)-1-(4-((2S,5R or 2R5S)-5-(5-amino-9-fluoro- 8-methoxy-[1,2,4]triazolo[1,5-c]quinazolin-2-yl)-2- methylpiperidin-1-yl)-1H-pyrazol-1-yl)propan-2-ol [Example 241]
IC50 (human A2B receptors): 21.7 nM | IC50 (human A2A receptors): 1.3 nM

COc1cc2nc(N)n3nc([C@@H]4CC[C@H](C)N(c5cnn([C@@H](C)[C@H](C)O)c5)C4)nc3c2cc1F (single isomer, unassigned) [Example 228, (2S,3S or 2R,3R)-3-(4-((2S,5R or 2R,5S)-5-(5-amino-9-fluoro-8-methoxy-[1,2,4]triazolo[1,5-c]quinazolin-2-yl)-2-methylpiperidin-1-yl)-1H-pyrazol-1-yl)butan-2-ol]
IC50 (human A2B receptors): 16.1 nM | IC50 (human A2A receptors): 0.8 nM

COc1cc2nc(N)n3nc([C@H]4C[C@@H](C)CN(c5cnn(CC(C)(C)O)c5)C4)nc3c2cc1F (single isomer, unassigned) [Example 158, 1-(4-((3S,5R or 3R,5S)-3-(5-amino-9-fluoro-8-methoxy-[1,2,4]triazolo[1,5-c]quinazolin-2-yl)-5-methylpiperidin-1-yl)-1H-pyrazol-1-yl)-2-methylpropan-2-ol]
IC50 (human A2B receptors): 32.9 nM | IC50 (human A2A receptors): 1.1 nM

COc1cc2nc(N)n3nc([C@@H]4CCCN(c5cnn(C(C)(C)C(C)O)c5)C4)nc3c2cc1F (single isomer, unassigned) [Example 243, (S or R)-3-(4-((R)-3-(5-amino-9-fluoro-8-methoxy-[1,2,4]triazolo[1,5-c]quinazolin-2-yl)piperidin-1-yl)-1H-pyrazol-1-yl)-3-methylbutan-2-ol]
IC50 (human A2B receptors): 50.7 nM | IC50 (human A2A receptors): 2.6 nM

COc1cc2nc(N)n3nc([C@H]4CC[C@@H](C)N(c5cnn([C@@H](C)[C@H](C)O)c5)C4)nc3c2cc1F (single isomer, unassigned) [Example 229, (2S,3S or 2R,3R)-3-(4-((2R,5S or 2S,5R)-5-(5-amino-9-fluoro-8-methoxy-[1,2,4]triazolo[1,5-c]quinazolin-2-yl)-2-methylpiperidin-1-yl)-1H-pyrazol-1-yl)butan-2-ol]
IC50 (human A2B receptors): 6.6 nM | IC50 (human A2A receptors): 1 nM

Cc1nn(C(C)C(C)O)cc1N1CCC[C@@H](c2nc3c4cc(F)cc(F)c4nc(N)n3n2)C1 (single isomer, unassigned) [Example 191, (2S,3S or 2R,3R)-3-(4-((R)-3-(5-amino-7,9-difluoro-[1,2,4]triazolo[1,5-c]quinazolin-2-yl)piperidin-1-yl)-3-methyl-1H-pyrazol-1-yl)butan-2-ol]
IC50 (human A2B receptors): 92.4 nM | IC50 (human A2A receptors): 0.9 nM

COc1cc2nc(N)n3nc([C@H]4C[C@@H](C)CN(c5cn([C@H](C)[C@@H](C)O)nc5C)C4)nc3c2cc1F (single isomer, unassigned) [Example 210, (2R,3R or 2S,3S)-3-(4-((3S,5R or 3R,5S)-3-(5-amino-9-fluoro-8-methoxy-[1,2,4]triazolo[1,5-c]quinazolin-2-yl)-5-methylpiperidin-1-yl)-3-methyl-1H-pyrazol-1-yl)butan-2-ol]
A2B cAMP % Inh. @10000 nM (human A2B receptors): 35% Inh. | IC50 (human A2A receptors): 16.2 nM

COc1cc2nc(N)n3nc(C4CC(C)CN(c5cn(C(C)(C)CO)nc5C)C4)nc3c2cc1F (racemic) [Example 155, racemic, trans-2-(4-(3-(5-amino-9-fluoro-8-methoxy-[1,2,4]triazolo [1,5-c]quinazolin-2-yl)-5-methylpiperidin-1-yl)-3-methyl-1H-pyrazol-1-yl)-2-methylpropan-1-ol]
IC50 (human A2B receptors): 1440 nM | IC50 (human A2A receptors): 23.9 nM

C[C@@H]1CC[C@H](c2nc3c4cc(F)cc(F)c4nc(N)n3n2)CN1c1cnn(C(C)(CO)CO)c1 (single isomer, unassigned) [Example 249, 2-(4-((2R,5S or 2S,5R)-5-(5-amino-7,9-difluoro-[1,2,4]triazolo[1,5-c]quinazolin-2-yl)-2-methylpiperidin-1-yl)-1H-pyrazol-1-yl)-2-methylpropane-1,3-diol]
IC50 (human A2B receptors): 197 nM | IC50 (human A2A receptors): 26.9 nM

Cc1c(N2CC(C)CC(c3nc4c5cc(F)cc(F)c5nc(N)n4n3)C2)cnn1C(C)C(C)O (single isomer, unassigned) [Example 219, (2S,3S or 2R,3R)-3-(4-((3S,5R or 3R,5S)-3-(5-amino-7,9-difluoro-[1,2,4]triazolo[1,5-c]quinazolin-2-yl)-5-methylpiperidin-1-yl)-5-methyl-1H-pyrazol-1-yl)butan-2-ol]
A2B cAMP % Inh. @10000 nM (human A2B receptors): 27% Inh. | IC50 (human A2A receptors): 247 nM

Cc1nn(CC(C)(C)O)cc1N1CC(C)CC(c2nc3c4cc(F)cc(F)c4nc(N)n3n2)C1 (single isomer, unassigned) [Example 167, 1-(4-((3R,5S or 3S,5R)-3-(5-amino-7,9-difluoro-[1,2,4]triazolo[1,5-c]quinazolin-2-yl)-5-methylpiperidin-1-yl)-3-methyl-1H-pyrazol-1-yl)-2-methylpropan-2-ol]
IC50 (human A2B receptors): 46 nM | IC50 (human A2A receptors): 0.6 nM

COc1cc2nc(N)n3nc(C4CC(C)CN(c5cn(C(C)(C)CO)nc5C)C4)nc3c2cc1F (single isomer, unassigned) [Example 169, 2-(4-((3S,5S or 3S,5R)-3-(5-amino-9-fluoro-8-methoxy-[1,2,4]triazolo[1,5-c]quinazolin-2-yl)-5-methylpiperidin-1-yl)-3-methyl-1H-pyrazol-1-yl)-2-methylpropan-1-ol]
IC50 (human A2B receptors): 3380 nM | IC50 (human A2A receptors): 96.5 nM
